Laboratory results reported in patent US20130224296A1, “Drug Formulations Using Water Soluble Antioxidants” (Bristol-Myers Squibb Company, priority 2010, published 2013).
Values after ≈ are worked out from the molar mass of the structure shown.

Assays:
[1] = physchem; details: water
[2] = Level of formaldehyde and formic acid in antioxidant containing Opadry films (GC); format: physicochemical; details: Opadry II white film, sealed vials 60° C. for 5 days; 0.2% w/v BHT or 2% w/v ascorbic acid or propyl gallate in suspension
Protocol: Five hundred μL of the coating suspension was dispensed in 5 mL scintillation vials. Open vials were kept overnight at 40° C. to form a film. The vials were rubber stoppered and sealed. The sealed vials were kept at 60° C. for 5 days and analyzed for formaldehyde and formic acid levels by a GC method. […] These concentrations are on the higher end of the recommended use concentrations for each antioxidant and were used to test their maximum efficacy.

solubility [1] [mg/mL] | Level of formaldehyde [2] | Level of formic acid [2] [ppm] | SMILES
3.33 (≈ 15.7 mM) | Not detected | 60 | CCCOC(=O)c1cc(O)c(O)c(O)c1 [Propyl gallate]
 | Not detected | 184 | O=C1O[C@H]([C@@H](O)CO)C(O)=C1O [Ascorbic acid]
0.0006 to 0.0011 (≈ 0.00272 to 0.00499 mM) | 95 ppm | 1159 | Cc1cc(C(C)(C)C)c(O)c(C(C)(C)C)c1 [Butylated hydroxy toluene (BHT), Butylated hydroxy toluene]
